In article PMC9128629, “Identification and Characterization of Bifunctional Drimenol Synthases of Marine Bacterial Origin” (ACS Chemical Biology, 2022):

How the values were obtained:
Type in all cases: biochemical
[1] = biological target: T1, AsDMS (Aquimarina spongiae drimenol synthase) (Aquimarina spongiae, UniProt A0A1M6CXF0); test: GC-MS detection of drimenol; details: 50 mM Tris-HCl pH 8.0, 2 mM MgCl2, 1 mM DTT, 100 μM FPP, 200 nM enzyme, 30 °C, 1 h, with or without alkaline phosphatase
T1 construct: gene SAMN04488508_102320

[2] = biological target: T2, AsDMS (Aquimarina spongiae drimenol synthase) (Aquimarina spongiae, UniProt A0A1M6CXF0, D182N/K183D, form not given); test: GC-MS detection of drimenol; details: 50 mM Tris-HCl pH 8.0, 2 mM MgCl2, 1 mM DTT, 100 μM FPP, 200 nM enzyme, 30 °C, 1 h, with or without alkaline phosphatase
T2 construct: gene SAMN04488508_102320

[3] = biological target: T1, AsDMS (Aquimarina spongiae drimenol synthase); test: GC-MS detection of drimenol; details: 50 mM Tris-HCl pH 8.0, 2 mM MgCl2, 1 mM DTT, 100 μM FPP, 200 nM enzyme, 30 °C, 1 h, with or without alkaline phosphatase; remark: listed apart in the source
[4] = biological target: T1, AsDMS (Aquimarina spongiae drimenol synthase); test: GC-MS quantification of drimenol, Michaelis-Menten fit; details: 50 mM Tris-HCl pH 8.0, 2 mM MgCl2, 1 mM DTT, 0-120 μM FPP, 200 nM enzyme, 30 °C
[5] = biological target: T3, FeDMS (Flavivirga eckloniae, UniProt A0A2K9PVZ9); test: GC-MS detection of drimenol; details: 50 mM Tris-HCl pH 8.0, 2 mM MgCl2, 1 mM DTT, 100 μM FPP, 500 nM enzyme, 30 °C, 1 h, with or without alkaline phosphatase
T3 construct: gene C1H87_21965
T3 sequence (A0A2K9PVZ9 entry or part of it): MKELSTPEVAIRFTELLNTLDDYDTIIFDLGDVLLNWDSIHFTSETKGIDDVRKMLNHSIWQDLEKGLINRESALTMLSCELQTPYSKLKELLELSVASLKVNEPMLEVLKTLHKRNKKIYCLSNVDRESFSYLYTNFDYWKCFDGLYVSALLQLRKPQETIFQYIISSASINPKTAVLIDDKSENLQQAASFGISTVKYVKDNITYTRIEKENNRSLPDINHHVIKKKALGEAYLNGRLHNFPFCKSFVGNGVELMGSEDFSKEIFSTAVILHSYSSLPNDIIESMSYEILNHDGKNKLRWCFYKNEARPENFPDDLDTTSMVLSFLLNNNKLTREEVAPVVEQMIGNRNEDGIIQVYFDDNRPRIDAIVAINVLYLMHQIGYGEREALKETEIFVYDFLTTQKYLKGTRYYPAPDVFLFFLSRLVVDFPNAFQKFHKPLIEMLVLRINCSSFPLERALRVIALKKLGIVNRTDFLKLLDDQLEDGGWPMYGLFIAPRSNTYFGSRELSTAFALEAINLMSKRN

T1 sequence (A0A1M6CXF0 entry or part of it): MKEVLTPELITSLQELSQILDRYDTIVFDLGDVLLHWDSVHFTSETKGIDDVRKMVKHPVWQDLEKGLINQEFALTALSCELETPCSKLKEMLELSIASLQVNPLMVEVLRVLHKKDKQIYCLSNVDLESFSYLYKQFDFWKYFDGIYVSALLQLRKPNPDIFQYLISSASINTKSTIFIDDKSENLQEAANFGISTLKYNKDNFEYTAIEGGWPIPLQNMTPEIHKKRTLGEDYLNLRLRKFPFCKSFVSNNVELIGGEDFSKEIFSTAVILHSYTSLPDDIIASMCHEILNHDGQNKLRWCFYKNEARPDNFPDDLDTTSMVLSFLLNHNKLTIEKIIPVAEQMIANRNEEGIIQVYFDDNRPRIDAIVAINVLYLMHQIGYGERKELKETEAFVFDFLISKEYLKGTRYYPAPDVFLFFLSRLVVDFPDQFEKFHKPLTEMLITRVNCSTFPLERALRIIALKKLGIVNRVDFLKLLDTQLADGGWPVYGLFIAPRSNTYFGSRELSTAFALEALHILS
T2 sequence (A0A1M6CXF0 entry or part of it D182N/K183D, form open): as the sequence (A0A1M6CXF0 entry or part of it) above, with D182N, K183D counted along it

CC(C)=CCC/C(C)=C/CC/C(C)=C/CO[P@@](=O)(O)OP(=O)(O)O [FPP]
GC-MS detection of drimenol [1]: exhibited almost equipotent activity to that of the WT
GC-MS detection of drimenol [2]: a double mutant D196N/K197D
GC-MS detection of drimenol [3]: The D196N mutant displayed a significant decrease in activity
Km [4]: 9.59 ± 2.15 µM
GC-MS detection of drimenol [5]: five proteins (AsDMS, A474DMS, A119DMS, FeDMS, and RbDMS) with FPP yielded a single compound
